Results: ChEMBL document CHEMBL5241055, “Angel or Devil ? - CDK8 as the new drug target” (Eur J Med Chem, 2021)

What was measured:
Heat shock protein HSP90 = Heat shock protein HSP90 (Homo sapiens, UniProt P07900+P08238); assay: Inhibition of HSP90 (unknown origin); assay type: protein assay
CDK8/Cyclin C = CDK8/Cyclin C (Homo sapiens, UniProt P49336); assay: Inhibition of CDK8/Cyclin C (unknown origin) using RBER-IRStide as substrate by radiometric assay; assay type: protein-complex assay
[1] = Antiproliferative activity against HUVEC cells assessed as inhibition of cell growth; assay type: toxicity, cell-based; conditions: human
[2] = target: T1, Cyclin-dependent kinase 8 (Homo sapiens, UniProt P49336); assay: Inhibition of CDK8 (unknown origin)
T1 sequence (P49336 whole entry): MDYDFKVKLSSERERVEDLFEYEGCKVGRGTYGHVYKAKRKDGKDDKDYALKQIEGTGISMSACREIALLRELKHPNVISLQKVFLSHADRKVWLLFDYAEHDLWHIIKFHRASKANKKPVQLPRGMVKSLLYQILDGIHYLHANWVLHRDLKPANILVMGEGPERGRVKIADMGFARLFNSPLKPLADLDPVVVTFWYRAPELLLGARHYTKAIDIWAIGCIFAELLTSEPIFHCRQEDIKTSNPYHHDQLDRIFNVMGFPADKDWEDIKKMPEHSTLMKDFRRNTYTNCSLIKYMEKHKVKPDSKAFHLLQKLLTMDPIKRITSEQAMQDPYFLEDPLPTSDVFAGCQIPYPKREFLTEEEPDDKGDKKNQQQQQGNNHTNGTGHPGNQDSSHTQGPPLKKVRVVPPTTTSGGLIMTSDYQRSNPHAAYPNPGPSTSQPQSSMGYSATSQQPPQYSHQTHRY

HCT-116 = assay: Anticancer activity against human HCT-116 cells assessed as inhibition of cell growth by SRB assay; assay type: functional, cell-based
[3] = target: T1, Cyclin-dependent kinase 8; assay: Binding affinity to CDK8 (unknown origin)

Sequence of CDK8/Cyclin C (P49336 whole entry): as above
Sequence of CDK8/Cyclin C (P24863 whole entry, further chain): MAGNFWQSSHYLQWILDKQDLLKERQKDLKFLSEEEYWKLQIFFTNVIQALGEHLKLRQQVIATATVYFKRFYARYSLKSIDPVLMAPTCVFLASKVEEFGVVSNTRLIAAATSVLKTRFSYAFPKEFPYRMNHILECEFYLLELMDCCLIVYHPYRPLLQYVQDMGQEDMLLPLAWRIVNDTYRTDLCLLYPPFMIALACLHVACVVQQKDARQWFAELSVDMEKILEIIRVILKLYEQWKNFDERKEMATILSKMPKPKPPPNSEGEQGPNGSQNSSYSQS

In the case of `CNC(=O)c1ccc2[nH]nc(Cc3ccc4c(cnn4C)c3)c2c1`, the IC50 (Heat shock protein HSP90) is reported as > 10000 nM.
`N#Cc1ccc2ncnc(NCCc3ccccc3)c2c1` gave an IC50 (CDK8/Cyclin C) of 640 nM.
With `CCCNc1ncnc2ccc(Br)cc12` the IC50 (CDK8/Cyclin C) was 6100 nM.
In the case of `Cc1cnccc1/C=C/[C@@H](C)[C@H]1CC[C@@H]2[C@]1(C)CCC1=CC3=CC[C@@H](N(C)C)C[C@]34CC[C@@]12O4`, the IC50 [1] is reported as 800 nM.
For `CN(C)[C@@H]1C=CC2=CC3=CC[C@]4(C)[C@@H](c5ccc6ccncc6c5)CC[C@H]4[C@@]34CC[C@]2(C1)O4`, the IC50 [1] was 8 nM.
`CC1CN(C)CCC1CCC(C)[C@H]1CC[C@@H]2[C@]1(C)CC=C1C=C3C=C[C@@H](N(C)C)C[C@]34CC[C@@]12O4` (stereo partly specified) gave an IC50 [1] of 1900 nM.
For `Cc1cccc(Cc2n[nH]c3cc(O)c(C(=O)N4Cc5ccccc5C4)cc23)c1`, the IC50 [2] was 15 nM and the IC50 (Heat shock protein HSP90) was 110 nM.
For `CN(C)[C@H]1C[C@@]23CC[C@@]4(O2)C(=CC[C@@]2(C)[C@H]4CC(=O)[C@]2(O)c2ccc4ccncc4c2)C=C3[C@@H](O)[C@@H]1O`, the IC50 [1] was 150 nM.
With `N#Cc1ccc2ncnc(NCCc3ccc4ccccc4c3)c2c1` the IC50 (CDK8/Cyclin C) was 740 nM.
For `Cc1cnccc1CC[C@@H](C)[C@H]1CC[C@@H]2[C@]1(C)CCC1=CC3=CC[C@@H](N(C)C)C[C@]34CC[C@@]12O4`, the IC50 [1] was 350 nM.
For `CN(C)[C@H]1C[C@@]23CC[C@@]4(O2)C(=CC[C@@]2(C)[C@H]4C[C@H](O)[C@@H]2c2ccc4ccncc4c2)C=C3[C@@H](O)[C@@H]1O`, the IC50 [1] was 1100 nM.
For `COc1ccc(/C=N/c2ncc(-c3cc4ccccc4oc3=O)o2)cc1O`, the IC50 (HCT-116) was 71800 nM.
Work on `Cc1ccc(-n2nc(C(C)(C)C)cc2NC(N)=O)cc1` yielded a Kd [3] of 3240 nM.
In the case of `CC1CN(C)CCC1CC[C@@H](C)[C@H]1CC[C@@H]2[C@]1(C)CCC1=CC3=CC[C@@H](N(C)C)C[C@]34CC[C@@]12O4` (stereo partly specified), the IC50 [1] is reported as 450 nM.
With `CN(C)[C@H]1C[C@@]23CC[C@@]4(O2)C(=CC[C@]2(C)[C@@H](c5ccc6ccncc6c5)C(=O)C[C@H]24)C=C3[C@@H](O)[C@@H]1O` the IC50 [1] was 19 nM.
